{"source": "paper PMC11237774", "about": "“On-target, dual aminopeptidase inhibition provides cross-species antimalarial activity” (mBio, 2024)", "key": {"[1]": {"experiment": "Metabolic stability in cryopreserved hepatocytes", "assay_type": "in vitro ADME", "settings": "pH 7.4, read-out: in vitro hepatocyte CLint", "method": "Samples were collected over the incubation period, quenched by the addition of an equal volume of acetonitrile, and analyzed using a Waters Acquity UPLC and Xevo G2 QTOF mass spectrometer with positive electrospray ionization under the MS^E mode. The natural log of the substrate concentration was plotted against the incubation time to determine the first-order degradation rate constant which was normalized to the microsomal protein concentration to give the in vitro intrinsic clearance (in vitro CLint, µL/min/mg microsomal protein). […] Cell viability was determined by Trypan Blue exclusion. At various times over the incubation period, samples were quenched with the addition of an equal volume of acetonitrile and analyzed as described above. Metabolite identification was conducted by accurate mass and tandem mass spectrometry (MS/MS) analysis."}, "[2]": {"test_system": "Pf3D7", "experiment": "Parasite killing rate (wash-out) assay", "assay_type": "cell-based, P. falciparum", "settings": "washout after 24 or 48 h of treatment, 10× EC50, parasites traversed a trophozoite stage", "method": "Assays were performed as previously described ([7]). […] Parasite cultures incubated for 48 h were fed at 24 h with fresh media containing compound. […] Once thawed, cultures were analyzed using SYBR Green I as described above. Parasite viability was determined as a percentage of vehicle-treated controls, and experiments were performed in four biological replicates."}}, "note": "Where two headings read alike, the source gives them in different places.", "data": [{"smiles": "CC(C)(C)CC(=O)NC(C(=O)NO)c1ccc(-c2cc(F)c(F)c(F)c2)cc1", "note": "(stereo not drawn) [MMV1557817, N-(2-(hydroxyamino)−2-oxo-1-(3′,4′,5′-trifluoro-[1,1′-biphenyl]-4-yl)ethyl)-3,3-dimethylbutanamide]", "values": [{"measurement": "hepatocyte CLint at 1 µM", "setting": "[1]; human cryopreserved hepatocytes", "result": 2, "unit": "µL/min/1e6 cells"}, {"measurement": "hepatocyte CLint at 1 µM", "setting": "[1]; rat cryopreserved hepatocytes", "result": 4, "unit": "µL/min/1e6 cells"}, {"measurement": "parasite survival", "setting": "[2]", "result": "less than 10%"}]}]}
